One assay relates to AGTM or AGT21. As to the kind of experiment: One-pot labeling and separation with streptavidin magnetic beads. The assay is classed as biochemical, human. The settings on record: 5 μM protein, 10 μM substrate, 1 hour; fluorescence 490/535 nm in supernatant. Here is the method: In other experiments, purified AGTM or AGT21 (Example 47) in a protein concentration of 5 μM are incubated with 10 μM N-[4-(2-amino-8-(3-(N-(+)-biotinyl-6-aminocaproyl)-aminopropyl)-9H-purin-6-yloxymethyl)-benzyl]-fluoresceine-5(6)-carboxamide (52, Example 34) in 50 μl buffer containing 100 mM NaCl, 50 mM Tris, pH 8.0, 0.1% Tween, 1 mM DTT at room temperature. After 1 hour, streptavidin coated magnetic beads (Magnabind Streptavidin, Pierce) with a capacity to bind at least 1 nmol biotin are added and the incubation time and magnetic separation from the supernatant containing fluorescein-labeled protein are done according to manufacturer's instructions for use. The amount of protein in solution before and after the treatment with magnetic beads is determined by Bradford assay. The loss of protein is less than 30%. The labeling efficiency is determined by measuring the fluorescence intensity using a Victor2 microplate reader (Perkin Elmer) at 490 nm excitation and 535 nm emission in the supernatant after removal of the unreacted substrate and released product by binding to the beads and magnetic separation. The labeling efficiency is at least 20%.

A further assay concerns the target T1, AGTM (Homo sapiens, UniProt P16455, A127T/C150N/C62A/G131K/G132T/K125A/M134L/N157G/Q115S/Q116H/R128A/R135S/S151I/S152N/S159E).
T1 construct: a truncation after codon 182 into the mutant AGT gene
T1 sequence (P16455 1-182 C62A/Q115S/Q116H/K125A/A127T/R128A/G131K/G132T/M134L/R135S/C150N/S151I/S152N/N157G/S159E): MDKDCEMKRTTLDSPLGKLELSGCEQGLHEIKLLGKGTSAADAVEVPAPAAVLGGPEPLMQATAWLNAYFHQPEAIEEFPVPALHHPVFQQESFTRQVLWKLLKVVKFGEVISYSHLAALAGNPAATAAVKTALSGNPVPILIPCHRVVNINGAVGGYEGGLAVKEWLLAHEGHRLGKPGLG
As to the kind of experiment: Labeling with substrate pre-immobilized on streptavidin magnetic beads. The settings on record: AGTM 50 μM, 20 h. The assay is classed as biochemical. On the procedure: In a further experiment, wherein the substrate is pre-immobilized, streptavidin coated magnetic beads (Magnabind Streptavidin, Pierce) with a capacity to bind […] biotin per ml are incubated with twofold excess of compound 52 (as above) in buffer containing 100 mM NaCl, 50 mM Tris, pH 8.0, 0.1% Tween at room temperature to immobilize the substrate to the beads. The incubation time and magnetic separation from the supernatant are done according to manufacturer's instructions for use. Unbound substrate is removed with buffer by 3 subsequent washing steps. AGTM at a protein concentration of 50 μM is incubated with these substrate-modified beads in 50 μl buffer containing 100 mM NaCl, 50 mM Tris, pH 8.0, 0.1% Tween, 1 mM DTT at room temperature. After 20 h, the beads are separated from the supernatant containing fluorescein-labeled protein. The amount of protein in solution before and after the treatment with magnetic beads is determined by Bradford assay.

A further assay has as its target T2, AGTM (mutant AGT) (Homo sapiens, UniProt P16455, A127T/C150N/C62A/G131K/G132T/K125A/M134L/N157G/Q115S/Q116H/R128A/R135S/S151I/S152N/S159E).
T2 construct: a truncation after codon 182 into the mutant AGT gene; 6xHis
T2 sequence (P16455 1-182 C62A/Q115S/Q116H/K125A/A127T/R128A/G131K/G132T/M134L/R135S/C150N/S151I/S152N/N157G/S159E): T1 sequence (P16455 1-182 C62A/Q115S/Q116H/K125A/A127T/R128A/G131K/G132T/M134L/R135S/C150N/S151I/S152N/N157G/S159E)
The assay is described as follows: Reaction rate of AGT mutant with substrate, BGBT capture and Western blot. The class given is biochemical. From the text: Proteins are then denatured with SDS and heat. Samples are subjected to SDS-PAGE and Western blot analysis. The intensity of the corresponding bands is detected by chemiluminescence stain.
A second AGT mutant (“AGTM”) containing the mutations Cys62Ala, Gln115Ser, Gln116His, Lys125Ala, Ala127Thr, Arg128Ala, Gly131Lys, Gly132Thr, Met134Leu, Arg135Ser, Cys150Asn, Ser15111e, Ser152Asn, Asn157Gly, Ser159G1u, and truncation at 182 is derived from the mentioned above AGT mutant by subsequent introduction of further mutations and a truncation after codon 182 into the mutant AGT gene. […] The GST-fusion protein is expressed and purified as well.
AGTM (1 μM final concentration) is incubated with N^9-cyclopentyl-O^6-(4-bromothiophen-2-yl)-guanine (18, CPTG) (10 μM in 1% DMSO final concentration) in reaction buffer (50 mM HEPES, 1 mM DTT, […] BSA, pH 7.3) at 24° C. […] The reaction is quenched by addition of SDS-Laemmli buffer and heating for 2 min at 95° C. Samples are run on a 12% acrylamide gel and analysed by Western blotting.

The next assay concerns the target T3, Mutant AGT (AGTM) (Homo sapiens, UniProt P16455, A127T/C150N/C62A/G131K/G132T/K125A/M134L/N157G/Q115S/Q116H/R128A/R135S/S151I/S152N/S159E).
T3 construct: a truncation after codon 182 into the mutant AGT gene
T3 sequence (P16455 1-182 C62A/Q115S/Q116H/K125A/A127T/R128A/G131K/G132T/M134L/R135S/C150N/S151I/S152N/N157G/S159E): T1 sequence (P16455 1-182 C62A/Q115S/Q116H/K125A/A127T/R128A/G131K/G132T/M134L/R135S/C150N/S151I/S152N/N157G/S159E)
The assay is described as follows: In vitro competition between CPTG and BGBT, separate incubation. The class given is biochemical. The settings on record: CPTG 20 times higher than BGBT (0.5 μM), after 45 minutes. Here is the method: (§1) The reaction is quenched by addition of 2×SDS buffer and placed 2 min at 95° C. Samples are run on a 12% acrylamide gel and analysed by Western blotting.

In the next assay the target is T4, wild type hAGT (Homo sapiens, UniProt P16455).
T4 sequence (P16455 1-207): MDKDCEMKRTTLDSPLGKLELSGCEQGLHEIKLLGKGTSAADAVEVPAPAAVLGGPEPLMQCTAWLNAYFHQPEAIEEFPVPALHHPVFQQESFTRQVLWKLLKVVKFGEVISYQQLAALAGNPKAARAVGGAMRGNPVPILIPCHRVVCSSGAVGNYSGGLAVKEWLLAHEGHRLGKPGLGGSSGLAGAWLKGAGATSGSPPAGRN
The assay is described as above. The assay is classed as biochemical. The settings on record: CPTG 20 times higher than BGBT (0.5 μM), after 45 minutes. On the procedure:
as §1

In assay [1] the target is T5, AGTM-6×His fusion protein (Homo sapiens, UniProt P16455, A127T/C150N/C62A/G131K/G132T/K125A/M134L/N157G/Q115S/Q116H/R128A/R135S/S151I/S152N/S159E).
T5 construct: a truncation after codon 182 into the mutant AGT gene; 6xHis
T5 sequence (P16455 1-182 C62A/Q115S/Q116H/K125A/A127T/R128A/G131K/G132T/M134L/R135S/C150N/S151I/S152N/N157G/S159E): T1 sequence (P16455 1-182 C62A/Q115S/Q116H/K125A/A127T/R128A/G131K/G132T/M134L/R135S/C150N/S151I/S152N/N157G/S159E)
As to the kind of experiment: In vitro competition CPTG/BGBT, both proteins in one solution. The settings on record: both substrates CPTG and BGBT 5 μM, 30 min. The assay is classed as biochemical. Here is the method: (§2) Detection of the AGTM-BGBT complex with luminescent peroxidase substrate is as described for FIG. 2.
as §1
(§3) In comparing the reaction of AGTM and wild type hAGT, a high specificity of CPTG toward hAGT is observed. At the same concentration (both substrates 5 μM final concentration), 95% of wild type AGT has reacted with CPTG versus only 5% of AGTM.

The target in assay [2] is T6, wild type hAGT-GST fusion protein (Homo sapiens, UniProt P16455).
T6 sequence (P16455 1-207): T4 sequence (P16455 1-207)
Described as above. The assay is classed as biochemical. The settings on record: both substrates CPTG and BGBT 5 μM, 30 min. On the procedure:
as §2, §1, §3

For assay [3], the target named is T7, AGT (Gly160Trp)-NLS3 fusion protein in the nucleus of CHO cells (Homo sapiens, UniProt P16455, G160W).
T7 construct: expressed in transfected cells; host or cells: CHO cells, transient expression
T7 sequence (P16455 1-207 G160W): T4 sequence (P16455 1-207) with G160W
The assay is described as follows: Intracellular competition of two AGT mutants with two substrates in CHO cells. The assay is classed as cell-based. The settings on record: 5 μM CPTG 10 min, then 5 μM BG-AcFL 20 min. From the text: (§4) The mutant AGTM (Example 47) is amplified with the suitable primers and cloned between the NheI and BglII sites of the vector pEGFP-Nuc. The yeast β-galactosidase gene is likewise amplified and subcloned into this vector via BglII/BamHI to result in a vector with an AGT-β-Gal fusion gene. The wild type hAGT gene is amplified and cloned via NheI/BglII into pEGFP-Nuc to result in an AGT-NLS3 fusion gene coding for the mutation Gly160Trp.

In assay [4] the target is T8, AGTM-β-galactosidase fusion protein in CHO cells (Homo sapiens, UniProt P16455, A127T/C150N/C62A/G131K/G132T/K125A/M134L/N157G/Q115S/Q116H/R128A/R135S/S151I/S152N/S159E).
T8 construct: a truncation after codon 182 into the mutant AGT gene; expressed in transfected cells; host or cells: CHO cells, transient expression
T8 sequence (P16455 1-182 C62A/Q115S/Q116H/K125A/A127T/R128A/G131K/G132T/M134L/R135S/C150N/S151I/S152N/N157G/S159E): T1 sequence (P16455 1-182 C62A/Q115S/Q116H/K125A/A127T/R128A/G131K/G132T/M134L/R135S/C150N/S151I/S152N/N157G/S159E)
The assay is described as above. The assay is classed as cell-based. The settings on record: 5 μM CPTG 10 min, then 5 μM BG-AcFL 20 min.
Description: as §4

Here are results for two substances from US8163479B2, “Specific substrates for O6-alkylguanine-DNA alkyltransferase” (Ecole Polytechnique Federale de Lausanne, priority 2004, dated 2012).

Where a chain is given by its changes, count along the chain named.

For “N-[4-(2-Amino-8-(3-(N-(+)-biotinyl-6-aminocaproyl)-aminopropyl)-9H-purin-6-yloxymethyl)-benzyl]-fluoresceine-5(6)-carboxamide [compound 52]”, the labeling efficiency entry with AGTM or AGT21 and on AGTM was “at least 20%” each time. Moreover, at AGTM (Bradford assay), the loss of protein result is reported as “less than 30%”.
For “N^9-Cyclopentyl-O^6-(4-bromothiophen-2-yl)-guanine [CPTG]”, at AGTM (mutant AGT) (AGTM), the “activity ratio of the two substrates BGBT/CPTG” value is “at least 25”. Besides, at AGTM (mutant AGT) (AGTM 1 μM, substrate 10 μM, 24° C., pH 7.3), the “second order rate constant k2” value stood at 92.5 M⁻¹ s⁻¹. The “mutant AGTM still active” value on Mutant AGT (AGTM) is reported as 87%. Also, the “wild type AGT quenched by CPTG” value on wild type hAGT was 95%. Moreover, the “AGTM reacted with CPTG” value in assay [1] is listed as 5%. Also, in assay [2], the “wild type AGT reacted with CPTG” value came to 95%. The results for the “reaction with CPTG inside cells” value in assay [3] and in [4] were “efficiently reacts with CPTG” and “does not react with CPTG”, respectively.
